Source: patent US10654814B2, “Bicyclic hydroxamic acids useful as inhibitors of mammalian histone deacetylase activity” (KANCERA AB, priority 2015, dated 2020)
Structures can show the parent of a compound that is named as a salt.

Biological target: HDAC6 (Homo sapiens (Human), UniProt Q9UBN7)
Experiment: HDAC6 in vitro enzymatic assay (fluorescence)
Type: biochemical
Conditions: Table 3; read-out: IC50 (nM) for inhibition of HDAC6
Experimental: Biological Tests Method for Measurement of Enzymatic Activity of HDACs Materials & Methods
All Examples were tested in HDAC1,2,3,6 and 8 in vitro enzymatic assays. The assay principle is well known (Hauser et al. 2009, Bradner et al. 2010) and all necessary reagents like enzymes, substrates, developer and reference compounds are commercially available (see e.g. BPS Biosciences http://www.bpsbioscience.com/). Stock solutions (10 mM in DMSO) of compounds were serially diluted 1:3 in 11 concentrations with a top concentration of 200 μM for HDAC1,2,3 and 2 μM for HDAC6 and HDAC8. The enzymatic reactions were conducted in a mixture containing assay buffer, bovine serum albumin, HDAC substrate, and a test compound. After enzymatic reaction, developer was added and after an additional incubation time, fluorescence intensity was measured at an excitation wavelength of 360 nm and an emission wavelength of 460 nm. All experiments were performed in duplicate.

Chain of HDAC6 (Q9UBN7 whole entry): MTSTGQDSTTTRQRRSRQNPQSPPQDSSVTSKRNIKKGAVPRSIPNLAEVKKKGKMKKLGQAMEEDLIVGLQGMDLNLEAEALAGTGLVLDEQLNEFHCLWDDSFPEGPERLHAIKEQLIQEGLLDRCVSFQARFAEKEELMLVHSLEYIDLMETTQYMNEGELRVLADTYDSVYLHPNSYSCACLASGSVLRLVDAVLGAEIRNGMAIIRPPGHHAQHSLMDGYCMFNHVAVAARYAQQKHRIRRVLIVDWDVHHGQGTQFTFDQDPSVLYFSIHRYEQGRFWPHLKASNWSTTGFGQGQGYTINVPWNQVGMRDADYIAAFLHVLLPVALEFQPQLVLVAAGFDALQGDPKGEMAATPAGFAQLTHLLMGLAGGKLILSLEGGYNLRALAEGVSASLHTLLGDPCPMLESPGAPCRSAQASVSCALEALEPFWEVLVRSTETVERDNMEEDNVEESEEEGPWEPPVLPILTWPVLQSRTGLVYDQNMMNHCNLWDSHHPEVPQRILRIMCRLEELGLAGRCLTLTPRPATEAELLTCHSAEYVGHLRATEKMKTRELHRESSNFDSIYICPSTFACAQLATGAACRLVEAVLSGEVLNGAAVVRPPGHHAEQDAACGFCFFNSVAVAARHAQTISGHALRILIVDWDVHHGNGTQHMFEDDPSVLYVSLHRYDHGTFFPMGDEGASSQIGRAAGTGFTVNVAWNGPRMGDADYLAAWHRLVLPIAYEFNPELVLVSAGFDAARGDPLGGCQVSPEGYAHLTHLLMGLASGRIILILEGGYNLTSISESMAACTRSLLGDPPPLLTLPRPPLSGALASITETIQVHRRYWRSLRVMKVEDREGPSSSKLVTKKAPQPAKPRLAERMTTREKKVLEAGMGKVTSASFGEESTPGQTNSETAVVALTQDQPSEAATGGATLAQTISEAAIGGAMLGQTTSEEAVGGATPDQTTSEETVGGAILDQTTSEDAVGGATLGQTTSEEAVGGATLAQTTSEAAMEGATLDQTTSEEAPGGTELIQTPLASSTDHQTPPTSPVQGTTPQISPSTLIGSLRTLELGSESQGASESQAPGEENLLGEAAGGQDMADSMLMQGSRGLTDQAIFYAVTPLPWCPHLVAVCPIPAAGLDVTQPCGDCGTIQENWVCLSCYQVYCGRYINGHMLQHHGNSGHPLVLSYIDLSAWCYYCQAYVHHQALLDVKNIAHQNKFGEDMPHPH

Row | Structure (SMILES) | IC50 [nM]
1 | COc1cc(-c2cc3ccc(C(=O)NO)cc3s2)ccc1O [Example 150, N-hydroxy-2-(4-hydroxy-3-methoxyphenyl)-1-benzothiophene-6-carboxamide] | 53
2 | CC1CCN(c2ccc(-c3nc4cc(C(=O)NO)ccc4o3)cn2)CC1 [Example 152, N-Hydroxy-2-[6-(4-methylpiperidin-1-yl)pyridin-3-yl]-1,3-benzoxazole-5-carboxamide trifluoroacetate] | 30
3 | O=C(NO)c1ccc2oc(-c3ccc(NC4CCCCCC4)nc3)nc2c1 [Example 158, 2-[6-(cycloheptylamino)pyridin-3-yl]-N-hydroxy-1,3-benzoxazole-5-carboxamide trifluoroacetate] | 34
4 | COc1ccccc1N1CCN(c2ccc(-c3nc4cc(C(=O)NO)ccc4o3)cn2)CC1 [Example 160, N-hydroxy-2-{6-[4-(2-methoxyphenyl)piperazin-1-yl]pyridin-3-yl}-1,3-benzoxazole-5-carboxamide trifluoroacetate] | 21
5 | O=C(NO)c1ccc2oc(-c3ccc(-c4ccccc4)nc3)nc2c1 [Example 161, N-Hydroxy-2-(6-phenylpyridin-3-yl)-1,3-benzoxazole-5-carboxamide trifluoroacetate] | 22
6 | O=C(NO)c1ccc2oc(-c3ccc(-c4ccccc4)cc3F)nc2c1 [Example 173, 2-(3-Fluorobiphenyl-4-yl)-N-hydroxy-1,3-benzoxazole-5-carboxamide] | 20
7 | Cc1noc(C)c1-c1ccc(-c2nc3cc(C(=O)NO)ccc3o2)cc1 [Example 181, 2-[4-(3,5-dimethylisoxazol-4-yl)phenyl]-N-hydroxy-1,3-benzoxazole-5-carboxamide] | 31
8 | C[C@@H]1CN(Cc2cccc(-c3nc4cc(C(=O)NO)ccc4o3)c2)C[C@H](C)O1 [Example 202, 2-(3-{[(cis)-2,6-dimethylmorpholin-4-yl]methyl}phenyl)-N-hydroxy-1,3-benzoxazole-5-carboxamide trifluoroacetate] | 53
9 | COCCN(C)Cc1cccc(-c2nc3cc(C(=O)NO)ccc3o2)c1 [Example 205, N-hydroxy-2-(3-{[(2-methoxy-ethyl)(methyl)amino]methyl}phenyl)-1,3-benzoxazole-5-carboxamide trifluoroacetate] | 64
10 | C[C@@H]1CN(Cc2ccc(-c3nc4cc(C(=O)NO)ccc4o3)cc2)C[C@H](C)O1 [Example 207, 2-(4-{[(cis)-2,6-dimethylmorpholin-4-yl]methyl}phenyl)-N-hydroxy-1,3-benzoxazole-5-carboxamide trifluoroacetate] | 73
11 | O=C(NO)c1ccc2oc(-c3ccc(CN4CCN(c5ccncc5)CC4)cc3)nc2c1 [Example 209, N-hydroxy-2-{4-[(4-pyridin-4-ylpiperazin-1-yl)methyl]phenyl}-1,3-benzoxazole-5-carboxamide trifluoroacetate] | 35
12 | O=C(NO)c1ccc2oc(N(Cc3ccccc3)c3ccccc3)nc2c1 [Example 241, 2-[benzyl(phenyl)amino]-N-hydroxy-1,3-benzoxazole-5-carboxamide] | 27
13 | COc1ccc(CN(CCN(C)C)c2nc3cc(C(=O)NO)ccc3o2)cc1OC [Example 244, 2-{(3,4-dimethoxybenzyl)[2-(dimethylamino)ethyl]amino}-N-hydroxy-1,3-benzoxazole-5-carboxamide trifluoroacetate] | 63
14 | Cc1ccc(Nc2nc3cc(C(=O)NO)ccc3o2)cc1 [Example 263, N-hydroxy-2-[(4-methylphenyl)amino]-1,3-benzoxazole-5-carboxamide] | 9
15 | O=C(NO)c1ccc2sc(Cc3ccc(-c4ccncc4)cc3)nc2c1 [Example 272, N-Hydroxy-2-(4-pyridin-4-ylbenzyl)-1,3-benzothiazole-5-carboxamide trifluoroacetate] | 6
16 | O=C(NO)c1ccc2sc(CN3CCCCC3)nc2c1 [Example 273, N-Hydroxy-2-(piperidin-1-ylmethyl)-1,3-benzothiazole-5-carboxamide] | 16
17 | CC(C)CN(Cc1nc2cc(C(=O)NO)ccc2s1)CC(C)C [Example 274, 2-{[Bis(2-methylpropyl)amino]methyl}-N-hydroxy-1,3-benzothiazole-5-carboxamide trifluoroacetate] | 16
18 | COc1ccc(-c2cc3cc(C(=O)NO)ccc3o2)cn1 [Example 278, N-hydroxy-2-(6-methoxypyridin-3-yl)-1-benzofuran-5-carboxamide] | 96

Continued by falling IC50, values first:

Row | IC50 [nM] | Structure (SMILES)
19 | 92 | O=C(NO)c1ccc2oc(-c3ccccc3CO)cc2c1 [Example 281, N-hydroxy-2-[2-(hydroxymethyl)phenyl]-1-benzofuran-5-carboxamide]
20 | 58 | CC(C)(C)c1ccc(OCc2cc3cc(C(=O)NO)ccc3o2)cc1 [Example 163, 2-[(4-tert-Butylphenoxy)methyl]-N-hydroxy-1-benzofuran-5-carboxamide]
21 | 51 | O=C(NO)c1ccc2oc(NC3CCCCCCC3)nc2c1 [Example 232, 2-(cyclooctylamino)-N-hydroxy-1,3-benzoxazole-5-carboxamide]
22 | 49 | O=C(NO)c1ccc2cc(-c3ccoc3)sc2c1 [Example 149, 2-furan-3-yl-N-hydroxy-1-benzothiophene-6-carboxamide]
23 | 44 | O=C(NO)c1ccc2oc(-c3ccc4c(c3)OCCO4)nc2c1 [Example 219, 2-(2,3-Dihydro-1,4-benzodioxin-6-yl)-N-hydroxy-1,3-benzoxazole-5-carboxamide]
24 | 42 | Cn1c(N2CCc3ccccc3C2)nc2cc(C(=O)NO)ccc21 [Example 145, 2-(3,4-dihydroisoquinolin-2(1H)-yl)-N-hydroxy-1-methyl-1H-benzo[d]imidazole-5-carboxamide]
25 | 38 | CC(C)c1ccc(-c2nc3cc(C(=O)NO)ccc3o2)cc1F [Example 211, 2-[3-Fluoro-4-(1-methylethyl)phenyl]-N-hydroxy-1,3-benzoxazole-5-carboxamide]
26 | 37 | O=C(NO)c1ccc2sc(CO)nc2c1 [Example 271, N-Hydroxy-2-(hydroxymethyl)-1,3-benzothiazole-5-carboxamide]
27 | 34 | O=C(NO)c1ccc2oc(-c3ccc(-c4cccnc4)cc3F)nc2c1 [Example 175, 2-(2-fluoro-4-pyridin-3-ylphenyl)-N-hydroxy-1,3-benzoxazole-5-carboxamide]
28 | 32 | O=C(NO)c1ccc2oc(-c3cccc(O)c3)nc2c1 [Example 220, N-hydroxy-2-(3-hydroxyphenyl)-1,3-benzoxazole-5-carboxamide]
29 | 27 | Cc1[nH]c2ccccc2c1-c1nc2cc(C(=O)NO)ccc2o1 [Example 228, N-hydroxy-2-(2-methyl-1H-indol-3-yl)-1,3-benzoxazole-5-carboxamide]
30 | 22 | Cn1c(N(Cc2ccccc2)c2ccccc2)nc2cc(C(=O)NO)ccc21 [Example 141, 2-(benzyl(phenyl)amino)-N-hydroxy-1-methyl-1H-benzo[d]imidazole-5-carboxamide]
31 | 20 | COc1cc(-c2ccccc2F)ccc1-c1nc2cc(C(=O)NO)ccc2o1 [Example 196, 2-(2′-fluoro-3-methoxybiphenyl-4-yl)-N-hydroxy-1,3-benzoxazole-5-carboxamide]
32 | 10 | Cn1c(NCCc2ccccc2)nc2cc(C(=O)NO)ccc21 [Example 140, N-hydroxy-1-methyl-2-(phenethylamino)-1H-benzo[d]imidazole-5-carboxamide]
33 | 9 | O=C(NO)c1ccc2oc(NC3(c4cccc(F)c4)CCCCC3)nc2c1 [Example 262, 2-{[1-(3-fluorophenyl)cyclohexyl]amino}-N-hydroxy-1,3-benzoxazole-5-carboxamide]
34 | 9 | O=C(NO)c1ccc2cc(-c3ccccc3)oc2c1 [Example 282, N-Hydroxy-2-phenyl-1-benzofuran-6-carboxamide]
35 | 8 | CS(=O)(=O)c1ccc(-c2ccc(-c3nc4cc(C(=O)NO)ccc4o3)cc2)cc1 [Example 180, N-hydroxy-2-[4′-(methylsulfonyl)biphenyl-4-yl]-1,3-benzoxazole-5-carboxamide]
36 | 8 | CC(C)c1ccc(NCc2nc3cc(C(=O)NO)ccc3s2)cc1 [Example 275, N-Hydroxy-2-({[4-(1-methylethyl)phenyl]amino}methyl)-1,3-benzothiazole-5-carboxamide]
37 | 7 | Cn1c(N2CCC(Cc3ccccc3)CC2)nc2cc(C(=O)NO)ccc21 [Example 143, 2-(4-benzylpiperidin-1-yl)-N-hydroxy-1-methyl-1H-benzo[d]imidazole-5-carboxamide]
38 | 7 | Cn1c(Nc2cccc(-c3ccccc3)c2)nc2cc(C(=O)NO)ccc21 [Example 144, 2-([1,1′-biphenyl]-3-ylamino)-N-hydroxy-1-methyl-1H-benzo[d]imidazole-5-carboxamide]
39 | 7 | O=C(NO)c1ccc2oc(Nc3cccc(-c4ccccc4)c3)nc2c1 [Example 230, 2-(biphenyl-3-ylamino)-N-hydroxy-1,3-benzoxazole-5-carboxamide]
40 | 4 | O=C(NO)c1ccc2oc(NCc3ccc(-c4ccccc4)cc3)nc2c1 [Example 234, 2-[(biphenyl-4-ylmethyl)amino]-N-hydroxy-1,3-benzoxazole-5-carboxamide]
41 | 4 | O=C(NO)c1ccc2sc(COCc3ccccc3)nc2c1 [Example 270, 2-[(Benzyloxy)methyl]-N-hydroxy-1,3-benzothiazole-5-carboxamide]
42 | 1 | Cn1c(Nc2cccc(OCc3ccccc3)c2)nc2cc(C(=O)NO)ccc21 [Example 142, 2-((3-(benzyloxy)phenyl)amino)-N-hydroxy-1-methyl-1H-benzo[d]imidazole-5-carboxamide]
